Assay results from patent US20120202690A1, “HERBICIDAL COMPOUNDS” (SYNGENTA LIMITED, priority 2009, published 2012).

How the values were obtained:
Type in all cases: in vivo
[1] = tested on: Alopecurus myosuroides (ALOMY); experiment: Pre-emergence biological efficacy, glasshouse, 1000 g/ha, evaluated after 13 days (100=total damage to plant; 0=no damage to plant); conditions: Alopecurus myosuroides, 312 h, rate 1,000 g/ha, read-out: Percentage damage caused to weed species, pre-emergence, ALOMY
How it was run: (§1)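 Test species are sown into pots of standard soil. Plants then grow in the glasshouse under controlled conditions (24/16° C. day/night, 14 hours light, 65% humidity) and receive water twice a day.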

[2] = tested on: Amaranthus retroflexus (AMARE); experiment: as above; conditions: Amaranthus retroflexus, 312 h, rate 1,000 g/ha, read-out: Percentage damage caused to weed species, pre-emergence, AMARE
How it was run: as §1

[3] = tested on: Echinochloa crus-galli (ECHCG); experiment: as above; conditions: Echinochloa crus-galli, 312 h, rate 1,000 g/ha, read-out: Percentage damage caused to weed species, pre-emergence, ECHCG
How it was run: as §1

[4] = tested on: Ipomoea hederaceae (IPOHE); experiment: as above; conditions: Ipomoea, 312 h, rate 1,000 g/ha, read-out: Percentage damage caused to weed species, pre-emergence, IPOHE
How it was run: as §1

Setaria faberi (SETFA) [5] = experiment: as above; conditions: Setaria faberi, 312 h, rate 1,000 g/ha, read-out: Percentage damage caused to weed species, pre-emergence, SETFA
How it was run: as §1

Solanum nigrum (SOLNI) [6] = experiment: as above; conditions: Solanum nigrum, 312 h, rate 1,000 g/ha, read-out: Percentage damage caused to weed species, pre-emergence, SOLNI
How it was run: as §1

[7] = tested on: Alopecurus myosuroides (ALOMY); experiment: Post-emergence biological efficacy, glasshouse, 500 or 1000 g/ha, evaluated after 13 days (100=total damage to plant; 0=no damage to plant); conditions: Alopecurus myosuroides, 312 h, rate 1,000 g/ha, read-out: Percentage damage caused to weed species, post-emergence, ALOMY
How it was run: (§2)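 Sow seeds in standard potting soil. Treat after emergence. Keep treated plants in the glasshouse at 24° C. by day and 16° C. by night, with a 14-hour photoperiod, 65% humidity and two waterings daily.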

[8] = tested on: Amaranthus retroflexus (AMARE); experiment: as above; conditions: Amaranthus retroflexus, 312 h, rate 1,000 g/ha, read-out: Percentage damage caused to weed species, post-emergence, AMARE
How it was run: as §2

[9] = tested on: Echinochloa crusgaffi (ECHCG); experiment: as above; conditions: Echinochloa, 312 h, rate 1,000 g/ha, read-out: Percentage damage caused to weed species, post-emergence, ECHCG
How it was run: as §2

[10] = tested on: Ipomoea hederaceae (IPOHE); experiment: as above; conditions: Ipomoea, 312 h, rate 1,000 g/ha, read-out: Percentage damage caused to weed species, post-emergence, IPOHE
How it was run: as §2

Setaria faberi (SETFA) [11] = experiment: as above; conditions: Setaria faberi, 312 h, rate 1,000 g/ha, read-out: Percentage damage caused to weed species, post-emergence, SETFA
How it was run: as §2

Solanum nigrum (SOLNI) [12] = experiment: as above; conditions: Solanum nigrum, 312 h, rate 1,000 g/ha, read-out: Percentage damage caused to weed species, post-emergence, SOLNI
How it was run: as §2

SMILES: COC(=O)c1nc(-c2ccc(Cl)c(N(C)C)c2F)nc2[nH]c(C)c(C)c12 [Compound 1-120, 2-(4-Chloro-3-dimethylamino-2-fluorophenyl)-5,6-dimethyl-4-methoxycarbonyl-7H-pyrrolo[2,3-d]pyrimidine]
- pest or weed control at 1000 g/ha [1]: 0%
- pest or weed control at 1000 g/ha [2]: 0%
- pest or weed control at 1000 g/ha [3]: 0%
- pest or weed control at 1000 g/ha [4]: 0%
- pest or weed control at 1000 g/ha (Setaria faberi (SETFA) [5]): 0%
- pest or weed control at 1000 g/ha (Solanum nigrum (SOLNI) [6]): 0%
- pest or weed control at 1000 g/ha [7]: 0%
- pest or weed control at 1000 g/ha [8]: 10%
- pest or weed control at 1000 g/ha [9]: 0%
- pest or weed control at 1000 g/ha [10]: 20%
- pest or weed control at 1000 g/ha (Setaria faberi (SETFA) [11]): 0%
- pest or weed control at 1000 g/ha (Solanum nigrum (SOLNI) [12]): 20%

SMILES: O=C(O)c1nc(Cl)nc2[nH]ccc12 [Compound 1-121, 4-carboxy-2-chloro-7H-pyrrolo[2,3-d]pyrimidine]
- pest or weed control at 1000 g/ha [1]: 0%
- pest or weed control at 1000 g/ha [2]: 0%
- pest or weed control at 1000 g/ha [3]: 0%
- pest or weed control at 1000 g/ha [4]: 0%
- pest or weed control at 1000 g/ha (Setaria faberi (SETFA) [5]): 0%
- pest or weed control at 1000 g/ha (Solanum nigrum (SOLNI) [6]): 0%
- pest or weed control at 1000 g/ha [7]: 0%
- pest or weed control at 1000 g/ha [8]: 0%
- pest or weed control at 1000 g/ha [9]: 0%
- pest or weed control at 1000 g/ha [10]: 0%
- pest or weed control at 1000 g/ha (Setaria faberi (SETFA) [11]): 0%
- pest or weed control at 1000 g/ha (Solanum nigrum (SOLNI) [12]): 10%

SMILES: COC(=O)c1nc(Cl)nc2[nH]c(C)cc12 [Compound 1-126, 2-Chloro-4-methoxy-carbonyl-6-methyl-7H-pyrrolo[2,3-d]pyrimidine]
- pest or weed control at 1000 g/ha [1]: 0%
- pest or weed control at 1000 g/ha [2]: 0%
- pest or weed control at 1000 g/ha [3]: 0%
- pest or weed control at 1000 g/ha [4]: 0%
- pest or weed control at 1000 g/ha (Setaria faberi (SETFA) [5]): 0%
- pest or weed control at 1000 g/ha (Solanum nigrum (SOLNI) [6]): 0%
- pest or weed control at 1000 g/ha [7]: 0%
- pest or weed control at 1000 g/ha [8]: 0%
- pest or weed control at 1000 g/ha [9]: 0%
- pest or weed control at 1000 g/ha [10]: 0%
- pest or weed control at 1000 g/ha (Setaria faberi (SETFA) [11]): 0%
- pest or weed control at 1000 g/ha (Solanum nigrum (SOLNI) [12]): 0%

SMILES: COC(=O)c1nc(-c2ccc(Cl)c(OC)c2F)nc2c1c(C)cn2C [Compound 2-64, 2-(4-Chloro-2-fluoro-3-methoxyphenyl)-5,7-dimethyl-4-methoxycarbonyl-7H-pyrrolo[2,3-d]pyrimidine]
- pest or weed control at 1000 g/ha [1]: 0%
- pest or weed control at 1000 g/ha [2]: 30%
- pest or weed control at 1000 g/ha [3]: 0%
- pest or weed control at 1000 g/ha [4]: 50%
- pest or weed control at 1000 g/ha (Setaria faberi (SETFA) [5]): 0%
- pest or weed control at 1000 g/ha (Solanum nigrum (SOLNI) [6]): 40%
- pest or weed control at 1000 g/ha [7]: 0%
- pest or weed control at 1000 g/ha [8]: 30%
- pest or weed control at 1000 g/ha [9]: 0%
- pest or weed control at 1000 g/ha [10]: 40%
- pest or weed control at 1000 g/ha (Setaria faberi (SETFA) [11]): 0%
- pest or weed control at 1000 g/ha (Solanum nigrum (SOLNI) [12]): 60%

SMILES: COC(=O)c1nc(-c2ccc(Cl)c(F)c2)nc2c1ccn2CC1CC1 [Compound 5-18, 2-(4-Chloro-3-fluorophenyl)-7-cyclopropylmethyl-4-methoxycarbonyl-7H-pyrrolo[2,3-d]pyrimidine]
- pest or weed control at 1000 g/ha [1]: 0%
- pest or weed control at 1000 g/ha [2]: 0%
- pest or weed control at 1000 g/ha [3]: 0%
- pest or weed control at 1000 g/ha [4]: 0%
- pest or weed control at 1000 g/ha (Setaria faberi (SETFA) [5]): 0%
- pest or weed control at 1000 g/ha (Solanum nigrum (SOLNI) [6]): 0%
- pest or weed control at 1000 g/ha [7]: 0%
- pest or weed control at 1000 g/ha [8]: 0%
- pest or weed control at 1000 g/ha [9]: 0%
- pest or weed control at 1000 g/ha [10]: 0%
- pest or weed control at 1000 g/ha (Setaria faberi (SETFA) [11]): 0%
- pest or weed control at 1000 g/ha (Solanum nigrum (SOLNI) [12]): 20%

SMILES: Cc1cc2c(C(=O)O)nc(-c3ccc(Cl)c(F)c3)nc2n1CC1CC1 [Compound 5-21, 4-Carboxy-2-(4-chloro-3-fluorophenyl)-7-cyclopropylmethyl-6-methyl-7H-pyrrolo[2,3-d]pyrimidine]
- pest or weed control at 1000 g/ha [1]: 10%
- pest or weed control at 1000 g/ha [2]: 100%
- pest or weed control at 1000 g/ha [3]: 0%
- pest or weed control at 1000 g/ha [4]: 30%
- pest or weed control at 1000 g/ha (Setaria faberi (SETFA) [5]): 10%
- pest or weed control at 1000 g/ha (Solanum nigrum (SOLNI) [6]): 40%
- pest or weed control at 1000 g/ha [7]: 10%
- pest or weed control at 1000 g/ha [8]: 70%
- pest or weed control at 1000 g/ha [9]: 10%
- pest or weed control at 1000 g/ha [10]: 30%
- pest or weed control at 1000 g/ha (Setaria faberi (SETFA) [11]): 10%
- pest or weed control at 1000 g/ha (Solanum nigrum (SOLNI) [12]): 50%

SMILES: COc1c(Cl)ccc(-c2nc(C(=O)O)c3cc(C)n(CC4CC4)c3n2)c1F [Compound 5-65, 4-Carboxy-2-(4-chloro-2-fluoro-3-methoxyphenyl)-7-cyclopropymethyl-6-methyl-7H-pyrrolo[2,3-d]pyrimidine]
- pest or weed control at 1000 g/ha [1]: 0%
- pest or weed control at 1000 g/ha [2]: 0%
- pest or weed control at 1000 g/ha [3]: 0%
- pest or weed control at 1000 g/ha [4]: 0%
- pest or weed control at 1000 g/ha (Setaria faberi (SETFA) [5]): 0%
- pest or weed control at 1000 g/ha (Solanum nigrum (SOLNI) [6]): 0%
- pest or weed control at 1000 g/ha [7]: 0%
- pest or weed control at 1000 g/ha [8]: 10%
- pest or weed control at 1000 g/ha [9]: 0%
- pest or weed control at 1000 g/ha [10]: 10%
- pest or weed control at 1000 g/ha (Setaria faberi (SETFA) [11]): 20%
- pest or weed control at 1000 g/ha (Solanum nigrum (SOLNI) [12]): 20%

SMILES: COC(=O)c1nc(-c2ccc(Cl)c(OC)c2F)nc2c1cc(C)n2CC1CC1 [Compound 5-66, 2-(4-Chloro-2-fluoro-3-methoxyphenyl)-7-cyclopropylmethyl-4-methoxycarbonyl-6-methyl-7H-pyrrolo[2,3-d]pyrimidine]
- pest or weed control at 1000 g/ha [1]: 0%
- pest or weed control at 1000 g/ha [2]: 0%
- pest or weed control at 1000 g/ha [3]: 0%
- pest or weed control at 1000 g/ha [4]: 0%
- pest or weed control at 1000 g/ha (Setaria faberi (SETFA) [5]): 0%
- pest or weed control at 1000 g/ha (Solanum nigrum (SOLNI) [6]): 0%
- pest or weed control at 1000 g/ha [7]: 10%
- pest or weed control at 1000 g/ha [8]: 0%
- pest or weed control at 1000 g/ha [9]: 10%
- pest or weed control at 1000 g/ha [10]: 0%
- pest or weed control at 1000 g/ha (Setaria faberi (SETFA) [11]): 20%
- pest or weed control at 1000 g/ha (Solanum nigrum (SOLNI) [12]): 20%

SMILES: O=C(O)c1nc(-c2ccc(Cl)c(F)c2)nc2c1ccn2Cc1ccccc1 [Compound 6-17, 4-Carboxy-2-(4-chloro-3-fluorophenyl)-7-phenylmethyl-7H-pyrrolo[2,3-d]pyrimidine]
- pest or weed control at 1000 g/ha [1]: 0%
- pest or weed control at 1000 g/ha [2]: 0%
- pest or weed control at 1000 g/ha [3]: 0%
- pest or weed control at 1000 g/ha [4]: 0%
- pest or weed control at 1000 g/ha (Setaria faberi (SETFA) [5]): 0%
- pest or weed control at 1000 g/ha (Solanum nigrum (SOLNI) [6]): 0%
- pest or weed control at 1000 g/ha [7]: 0%
- pest or weed control at 1000 g/ha [8]: 20%
- pest or weed control at 1000 g/ha [9]: 0%
- pest or weed control at 1000 g/ha [10]: 0%
- pest or weed control at 1000 g/ha (Setaria faberi (SETFA) [11]): 0%
- pest or weed control at 1000 g/ha (Solanum nigrum (SOLNI) [12]): 40%

SMILES: COC(=O)c1nc(-c2ccc(Cl)c(F)c2)nc2c1ccn2Cc1ccccc1 [Compound 6-18, 2-(4-Chloro-3-fluorophenyl)-4-methoxycarbonyl-7-phenylmethyl-7H-pyrrolo[2,3-d]pyrimidine]
- pest or weed control at 1000 g/ha [1]: 0%
- pest or weed control at 1000 g/ha [2]: 0%
- pest or weed control at 1000 g/ha [3]: 0%
- pest or weed control at 1000 g/ha [4]: 0%
- pest or weed control at 1000 g/ha (Setaria faberi (SETFA) [5]): 0%
- pest or weed control at 1000 g/ha (Solanum nigrum (SOLNI) [6]): 0%
- pest or weed control at 1000 g/ha [7]: 0%
- pest or weed control at 1000 g/ha [8]: 0%
- pest or weed control at 1000 g/ha [9]: 0%
- pest or weed control at 1000 g/ha [10]: 20%
- pest or weed control at 1000 g/ha (Setaria faberi (SETFA) [11]): 0%
- pest or weed control at 1000 g/ha (Solanum nigrum (SOLNI) [12]): 40%
